Key:
[1] = molecular target: Serine/threonine-protein kinase pim-1 (Homo sapiens, UniProt P11309); test: Inhibition of human recombinant Pim1 using RSRHSSYPAGT as substrate and 30 uM ATP by radiometric assay
[2] = molecular target: Serine/threonine-protein kinase pim-2 (Homo sapiens, UniProt Q9P1W9); test: Inhibition of human recombinant Pim2 using RSRHSSYPAGT as substrate and 5 uM ATP by radiometric assay
[3] = molecular target: Casein kinase II alpha/beta (Homo sapiens, UniProt P68400); format: protein-complex assay
BXPC-3 = test: Antiproliferative activity against human BxPC3 cells after 48 hrs by alamar blue assay; format: functional, cell-based; conditions: BXPC-3, 48 h
[4] = Antiproliferative activity against human SUM149PT cells after 48 hrs by alamar blue assay; format: functional, cell-based
K562 = test: Antiproliferative activity against human K562 cells after 48 hrs by alamar blue assay; format: functional, cell-based; conditions: K562, 48 h
MV4-11 = test: Antiproliferative activity against human MV411 cells after 48 hrs by alamar blue assay; format: functional, cell-based; conditions: MV4-11, 48 h
[5] = system: MDA-MB-453 (Homo sapiens); test: Antiproliferative activity against human MDA-MB-453 cells after 48 hrs by alamar blue assay; conditions: MDA-MB-453, 48 h
[6] = molecular target: T1, Receptor-type tyrosine-protein kinase FLT3 (Homo sapiens, UniProt P36888); test: Inhibition of Flt3
T1 sequence (P36888 whole entry): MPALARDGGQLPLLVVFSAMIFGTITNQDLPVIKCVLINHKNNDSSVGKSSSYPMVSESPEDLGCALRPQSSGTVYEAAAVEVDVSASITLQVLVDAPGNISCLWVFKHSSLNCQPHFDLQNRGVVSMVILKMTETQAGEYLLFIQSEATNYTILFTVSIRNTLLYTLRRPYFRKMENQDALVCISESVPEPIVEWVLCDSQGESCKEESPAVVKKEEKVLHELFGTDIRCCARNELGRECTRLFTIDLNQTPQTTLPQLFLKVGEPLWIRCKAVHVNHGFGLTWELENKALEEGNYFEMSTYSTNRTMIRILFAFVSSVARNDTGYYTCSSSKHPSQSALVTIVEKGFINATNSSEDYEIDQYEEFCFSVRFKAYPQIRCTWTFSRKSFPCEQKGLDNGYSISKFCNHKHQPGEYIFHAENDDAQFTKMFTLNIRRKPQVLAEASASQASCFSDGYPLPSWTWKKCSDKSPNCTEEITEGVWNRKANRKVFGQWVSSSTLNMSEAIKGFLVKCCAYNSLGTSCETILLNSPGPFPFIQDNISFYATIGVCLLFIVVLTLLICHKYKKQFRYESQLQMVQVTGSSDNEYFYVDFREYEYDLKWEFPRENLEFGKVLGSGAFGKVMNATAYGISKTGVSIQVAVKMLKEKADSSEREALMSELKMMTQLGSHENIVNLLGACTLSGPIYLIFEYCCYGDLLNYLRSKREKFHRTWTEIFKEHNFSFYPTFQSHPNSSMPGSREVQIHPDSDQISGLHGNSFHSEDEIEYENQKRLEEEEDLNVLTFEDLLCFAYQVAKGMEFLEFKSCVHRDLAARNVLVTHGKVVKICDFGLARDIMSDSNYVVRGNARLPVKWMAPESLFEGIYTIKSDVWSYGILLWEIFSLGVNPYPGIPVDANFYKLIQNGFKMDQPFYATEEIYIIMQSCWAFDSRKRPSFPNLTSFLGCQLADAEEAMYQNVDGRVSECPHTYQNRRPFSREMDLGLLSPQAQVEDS

Serine/threonine-protein kinase pim-1, sequence (P11309 whole entry): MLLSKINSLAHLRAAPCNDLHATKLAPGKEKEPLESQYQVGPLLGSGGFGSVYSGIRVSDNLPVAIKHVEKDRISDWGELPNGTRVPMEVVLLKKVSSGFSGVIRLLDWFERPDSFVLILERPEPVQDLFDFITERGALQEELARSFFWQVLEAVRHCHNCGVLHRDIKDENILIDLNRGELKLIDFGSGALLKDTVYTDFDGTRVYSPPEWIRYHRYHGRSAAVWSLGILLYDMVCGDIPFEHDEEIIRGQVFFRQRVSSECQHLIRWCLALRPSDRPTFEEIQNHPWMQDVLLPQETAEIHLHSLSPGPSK
Casein kinase II alpha/beta, sequence (P67870 whole entry): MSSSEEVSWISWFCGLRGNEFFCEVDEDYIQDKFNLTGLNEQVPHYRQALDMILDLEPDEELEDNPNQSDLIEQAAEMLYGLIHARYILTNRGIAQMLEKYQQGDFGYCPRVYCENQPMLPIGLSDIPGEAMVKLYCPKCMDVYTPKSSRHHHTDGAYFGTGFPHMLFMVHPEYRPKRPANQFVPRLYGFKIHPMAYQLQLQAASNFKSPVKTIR
Casein kinase II alpha/beta, sequence (P68400 whole entry): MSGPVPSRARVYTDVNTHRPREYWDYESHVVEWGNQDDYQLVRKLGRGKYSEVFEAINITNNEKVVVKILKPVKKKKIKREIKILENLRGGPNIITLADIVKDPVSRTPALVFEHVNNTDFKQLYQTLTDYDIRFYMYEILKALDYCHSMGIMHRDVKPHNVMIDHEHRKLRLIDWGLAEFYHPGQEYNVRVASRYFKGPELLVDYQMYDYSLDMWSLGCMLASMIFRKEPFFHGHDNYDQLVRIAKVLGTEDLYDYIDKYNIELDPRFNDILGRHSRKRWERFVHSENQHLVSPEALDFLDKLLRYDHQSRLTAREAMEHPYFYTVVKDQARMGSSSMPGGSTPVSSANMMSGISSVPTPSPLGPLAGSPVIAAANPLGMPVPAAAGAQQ
Serine/threonine-protein kinase pim-2, sequence (Q9P1W9 whole entry): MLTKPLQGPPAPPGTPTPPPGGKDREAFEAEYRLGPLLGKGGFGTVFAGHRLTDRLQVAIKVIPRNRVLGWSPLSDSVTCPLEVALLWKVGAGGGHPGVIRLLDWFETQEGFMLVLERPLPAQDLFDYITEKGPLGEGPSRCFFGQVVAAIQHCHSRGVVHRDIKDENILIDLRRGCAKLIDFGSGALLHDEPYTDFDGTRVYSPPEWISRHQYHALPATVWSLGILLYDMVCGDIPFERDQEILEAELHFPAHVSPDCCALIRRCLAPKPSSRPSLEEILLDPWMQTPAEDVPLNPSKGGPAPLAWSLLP

| SMILES | IC50 [1] [nM] | IC50 [2] [nM] | IC50 [3] [nM] | EC50 (BXPC-3) [nM] | EC50 (K562) [nM] | EC50 (MV4-11) [nM] | EC50 [5] [nM] | IC50 [6] [nM] | EC50 [4] [nM] |
| --- | --- | --- | --- | --- | --- | --- | --- | --- | --- |
| Fc1ccccc1Nc1nc2c(-c3nnc[nH]3)cccc2n2cccc12 | 8 | 20 | 89 | > 30000 | 8200 | 3700 | 28400 |  | 22800 |
| Fc1ccccc1Nc1nc2c(-c3nnc[nH]3)cccc2n2cncc12 | 38 | 43 | 35 | 15000 | 5400 | 100 | 3100 |  | 5400 |
| Clc1ccccc1Nc1nc2c(-c3nnc[nH]3)cccc2c2sccc12 | 3 | 2 | 9 | 11700 | 3600 | 500 | 2600 | > 10000 | 4400 |
| COc1ccccc1Nc1nc2c(-c3nnc[nH]3)cccc2c2sccc12 | 7 | 49 | 84 |  |  |  |  |  |  |
| c1ccc(Nc2nc3c(-c4nnc[nH]4)cccc3n3cccc23)cc1 | 14 | 30 | 101 |  |  |  |  |  |  |
| CNC(=O)c1cccc2c1nc(Nc1ccccc1Cl)c1ccsc12 | 5 | 28 | 48 |  |  |  |  | 5300 |  |
| COc1cccc(Nc2nc3c(-c4nnc[nH]4)cccc3c3sccc23)c1Cl | 5 | 21 | 17 |  |  |  |  |  |  |
| FC(F)(F)Oc1ccc(Nc2nc3c(-c4nnc[nH]4)cccc3c3sccc23)c(Cl)c1 | 64 | 76 | 75 |  |  |  |  |  |  |
| c1ccc(Nc2nc3c(-c4nnc[nH]4)cccc3c3ccsc23)cc1 | 16 | 14 | 30 |  |  |  |  |  |  |
| Clc1ccccc1Nc1nc2c(-c3nnc[nH]3)cccc2c2cscc12 | 7 | 8 | 20 | 4500 | > 10000 | 600 | 4900 | > 10000 | 2600 |
| CN(C)CCOc1ccc(Nc2nc3c(-c4nnc[nH]4)cccc3c3sccc23)cc1 | 16 | 34 | 136 |  |  |  |  |  |  |
| NC(=O)c1cccc2c1nc(Nc1ccccc1Cl)c1ccsc12 | 5 | 12 | 22 |  |  |  |  |  |  |
| O=C(O)c1cccc2c1nc(Nc1ccccc1Cl)c1ccsc12 | 69 | 121 | 139 |  |  |  |  |  |  |
| c1ccc(CNc2nc3c(-c4nnc[nH]4)cccc3c3sccc23)cc1 | 4 | 52 | 48 |  |  |  |  |  |  |
| Cc1cc2c(Nc3ccccc3F)nc3c(-c4nnc[nH]4)cccc3c2s1 | 15 | 6 | 26 |  |  |  |  |  |  |
| Clc1ccccc1Nc1nc2c(-c3nnc[nH]3)cccc2c2ccsc12 | 4 | 6 | 21 | 16100 | > 10000 | 3200 | 1300 | > 10000 | 2600 |
| Clc1ccccc1Nc1nc2c(-c3nnc[nH]3)cccc2c2scnc12 | 8 | 9 | 39 | 2800 | > 10000 | 4700 | 2000 |  | 12600 |
| NC(=O)c1ccc(Nc2nc3c(-c4nnc[nH]4)cccc3c3sccc23)cc1 | 17 | 17 | 139 |  |  |  |  |  |  |
| c1cc(-c2nnc[nH]2)c2nc(NC3CC3)c3ccsc3c2c1 | 15 | 25 | 62 |  |  |  |  |  |  |
| c1cc(-c2nnc[nH]2)c2nc(N3CCOCC3)c3ccsc3c2c1 | 35 | 10 | 128 |  |  |  |  |  |  |
| Clc1ccccc1Nc1nc2c(-c3nnc[nH]3)cccc2n2cccc12 | 12 | 41 | 89 |  |  |  |  | > 10000 |  |
| c1ccc(Nc2nc3c(-c4nnc[nH]4)cccc3c3cscc23)cc1 | 27 | 17 | 10 |  |  |  |  |  |  |

Continued, in another order:

| IC50 [1] [nM] | IC50 [2] [nM] | IC50 [3] [nM] | EC50 (BXPC-3) [nM] | EC50 (K562) [nM] | EC50 (MV4-11) [nM] | EC50 [5] [nM] | IC50 [6] [nM] | SMILES | EC50 [4] [nM] |
| --- | --- | --- | --- | --- | --- | --- | --- | --- | --- |
| 9 | 9 | 52 |  |  |  |  |  | Fc1ccc(Nc2nc3c(-c4nnc[nH]4)cccc3c3sccc23)c(Cl)c1 |  |
| 11 | 28 | 11 |  |  |  |  |  | COc1cccc(Nc2nc3c(-c4nnc[nH]4)cccc3c3sccc23)c1 |  |
| 14 | 86 | 33 |  |  |  |  |  | Clc1ccc(Nc2nc3c(-c4nnc[nH]4)cccc3c3sccc23)cc1 |  |
| 4 | 6 | 5 | 28000 | 7200 | 6500 | 7400 |  | COc1ccc(Nc2nc3c(-c4nnc[nH]4)cccc3c3sccc23)cc1 | 8200 |
| 4 | 15 | 10 | > 30000 | 6100 | 2000 | 7800 |  | c1ccc(Nc2nc3c(-c4nnc[nH]4)cccc3c3sccc23)cc1 | 7000 |
| 9 | 15 | 77 |  |  |  |  |  | Fc1ccc(Nc2nc3c(-c4nnc[nH]4)cccc3c3sccc23)cc1F |  |
| 9 | 24 | 151 |  |  |  |  |  | Fc1cc(F)cc(Nc2nc3c(-c4nnc[nH]4)cccc3c3sccc23)c1 |  |
| 17 | 22 | 76 |  |  |  |  |  | c1cncc(Nc2nc3c(-c4nnc[nH]4)cccc3c3sccc23)c1 |  |
| 10 | 12 | 126 |  |  |  |  |  | N#Cc1cccc(Nc2nc3c(-c4nnc[nH]4)cccc3c3sccc23)c1 |  |
| 6 | 6 | 15 |  |  |  |  |  | Clc1cccc(Nc2nc3c(-c4nnc[nH]4)cccc3c3sccc23)c1 |  |
| 14 | 4 | 10 |  |  |  |  |  | Oc1ccc(Nc2nc3c(-c4nnc[nH]4)cccc3c3sccc23)c(Cl)c1 |  |
| 91 | 68 | 216 |  |  |  |  |  | c1cc(-c2nnc[nH]2)c2nc(Nc3ccncc3)c3ccsc3c2c1 |  |
| 16 | 52 | 24 |  |  |  |  |  | FC(F)(F)c1cccc(Nc2nc3c(-c4nnc[nH]4)cccc3c3sccc23)c1 |  |
| 4 | 7 | 7 | > 30000 | > 10000 | > 10000 | 6600 |  | Fc1ccc(Nc2nc3c(-c4nnc[nH]4)cccc3c3sccc23)cc1 | > 30000 |
| 3 | 5 | 7 | 9100 | > 10000 | 4600 | 2600 |  | Fc1cccc(Nc2nc3c(-c4nnc[nH]4)cccc3c3sccc23)c1 | 8100 |
| 6 | 5 | 2 | 24600 | 6700 | 5400 | 9300 |  | C#Cc1cccc(Nc2nc3c(-c4nnc[nH]4)cccc3c3sccc23)c1 | 9600 |
| 2 | 2 | 11 | > 30000 | 4800 | 1700 | 4600 |  | Fc1ccc(Nc2nc3c(-c4nnc[nH]4)cccc3c3sccc23)c(F)c1 | > 30000 |
| 2 | 2 | 4 | > 30000 | 3600 | 600 | 7100 |  | Fc1ccccc1Nc1nc2c(-c3nnc[nH]3)cccc2c2sccc12 | 9500 |

— ChEMBL document CHEMBL2016532, “Novel potent dual inhibitors of CK2 and Pim kinases with antiproliferative activity against cancer cells” (Bioorg Med Chem Lett, 2012)
